Reference: patent US4260603A, “Sterol glycoside with activity as prostaglandin synthetase inhibitor” (priority 1979, dated 1981)
Converted amounts (≈) assume the structure as drawn.

Assays:
[1] = tested on: arthritis of rats caused by erysipeloid (strain T 28); test: Erysipeloid arthritis of rats, evaluation of aorta thrombes; type: in vivo, Male wistar rats; conditions: 5 mg/kg i.p., 5 times per week from infection day; comparison group 2.80
Excerpt: When comparing arthritis based on experimental erysipeloid of for example rats with human rheumatic arthritis an extensive correspondence of the morphological changes can be observed. The tests had been made according to the publication of Schulz et al. Beitr. Path. 154, 1-26, 27-51 (1975). The arthritis of rats caused by erysipeloid can be reproduced with nearly 100 percent effectiveness with a single injection. In case of arthritis caused by erysipeloid always more than 6 joints of the limbs are transformed, namely big and small joints of the limbs in the same manner.
In the test of the compounds the following parameters of the manifestation phase had been used for estimating the activity of the compound.
With rats fibrine-rich thrombes occur about 6th to 11th day of the intima of the aorta. The largest space covered is about 8th day.
Male wistar rats with a body weight of 150 to 180 g were used for the tests. The animals had been kept in single cages and got a rat standard diet (Ssniff R) and water ad libitum.
The infection was carried out with the erysipeloid strain T 28. The dosage was 2 ml s.c. (about 100-200 millions germs). The compounds to be tested had been suspended in sterile saline solution and had been injected i.p. in a dosage of 5 mg/kg body weight. The treatment was 5 times per week from infection day to end of test or death of animal.

[2] = Toxicity on administration over a long period of time; type: in vivo, rate, mice rabbits, dogs and primates; conditions: daily doses of 100 to 200 mg/kg of body weight over a long period of time
[3] = Acute toxicity by oral administration; type: in vivo, rate, mice rabbits, dogs and primates; conditions: doses of 1 to 2 grams/kg of body weight
physchem = type: physicochemical; conditions: water
Excerpt: According to the described process there can also be produced solutions of other sterol disaccharides. […] This solubility is above the preferred individual doses employed of the compounds.

Row | Structure (SMILES) | evaluation of aorta thrombes (value) [1] | tolerance [2] | acute toxicity [3] | solubility (physchem) [µg/mL]
1 | C[C@@H]1CC[C@@]2(OC1)O[C@H]1C[C@H]3[C@@H]4CC=C5C[C@@H](O[C@@H]6O[C@H](CO)[C@@H](O)[C@H](O)[C@H]6O)CC[C@]5(C)[C@H]4CC[C@]3(C)[C@H]1[C@@H]2C [diosgeninglucoside, diosgenin-3-β-D-Glucoside] | 1.33 | – | – | –
2 | C[C@@H]1CC[C@@]2(OC1)O[C@H]1C[C@H]3[C@@H]4CC[C@H]5C[C@@H](O[C@@H]6O[C@H](CO)[C@@H](O)[C@H](O)[C@H]6O)CC[C@]5(C)[C@H]4CC(=O)[C@]3(C)[C@H]1[C@@H]2C [hecogeninglucoside, hecogenin β-D-glucoside] | 1.38 | – | – | –
3 | CC[C@H](CC[C@@H](C)[C@H]1CC[C@H]2[C@@H]3CC=C4C[C@@H](O[C@@H]5O[C@H](CO)[C@@H](O)[C@H](O)[C@H]5O)CC[C@]4(C)[C@H]3CC[C@]12C)C(C)C [sitosterol-β-D-glucoside, Sitosterol-β-D-Glucoside] | 2.00 | good | no toxic effects | –
4 | CC[C@H](CC[C@@H](C)[C@H]1CC[C@H]2[C@@H]3CC=C4C[C@@H](O[C@@H]5O[C@H](CO)[C@@H](O[C@@H]6O[C@H](CO)[C@@H](O)[C@H](O)[C@H]6O)[C@H](O)[C@H]5O)CC[C@]4(C)[C@H]3CC[C@]12C)C(C)C [β-D-cellobioside of sitosterol] | – | – | – | 750 (≈ 1010 µM)
5 | CC[C@H](CC[C@@H](C)[C@H]1CC[C@H]2[C@@H]3CC=C4C[C@@H](O[C@@H]5O[C@H](CO)[C@@H](O[C@@H]6O[C@H](CO)[C@H](O)[C@H](O)[C@H]6O)[C@H](O)[C@H]5O)CC[C@]4(C)[C@H]3CC[C@]12C)C(C)C [β-D-lactoside of sitosterol] | – | – | – | 210 (≈ 284 µM)
